Measurements: BindingDB's records for doi:10.1021/acsmedchemlett.0c00444 (Virginia Commonwealth University, 2020)

Experiment: Inhibition of HIV1 3B reverse transcriptase infected in human GHOST CXCR4 cells assessed as reduction in viral replication incubated for 60 to 90 mins in presence of DTT and TTP by liquid scintillation counter

SMILES | EC50
CNC(=O)COCC(=O)NCCCCNC(=O)COCC(=O)NC[C@H]1CC[C@H](/N=C(\NC2CCCCC2)SCC2=CSC3=NC(C)(C)CN23)CC1 | 144 µM
CC1(C)CN2C(CS/C(N)=N\[C@H]3CC[C@H](CNC(=O)COCC(=O)NCCCCNC(=O)COCC(=O)N[C@@H]4CC[C@@]5(O)[C@H]6Cc7ccc(O)c8c7[C@@]5(CCN6CC5CC5)[C@H]4O8)CC3)=CSC2=N1 | 0.96 µM
CC1(C)CN2C(CS/C(=N\C3CCCCC3)NC3CCCCC3)=CSC2=N1 [(6,6-dimethyl-5,6-dihydroimidazo[2,1-b][1,3]thiazol-3-yl)methyl N,N'-dicyclohexylimidothiocarbamate] | 0.022 µM
